Results on eleven compounds are retold here after ChEMBL document CHEMBL1201862, “PubChem BioAssay data set” (2004).

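Dose response: 5 concentrations. Exposure: 48 h. Format: 96-well plates. Endpoint: linear interpolation; highest concentration if not reached. GI50 is the concentration that inhibits growth by half.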 Calls of active or inactive are those of the source. Cut-off read from the data, not from the text of the source: active = GI50 up to about 1.1 µM and inactive = higher.

Some test systems named below: U-251; HCT-15; HCT-116; HCC 2998; SK-OV-3; MOLT-4; UACC-257; SNB-75; RXF 393; Hs-578T; OVCAR-4; SK-MEL-5; OVCAR-3; IGROV-1; NCI-H23; NCI-H522; KM12; PC-3; BT-549; HL-60.
Common to all, as to experiment: DTP human tumour cell line panel, 48 h

Consider `[N-]=[N+]=Nc1c([N+](=O)[O-])c(=O)n(-c2ccccc2)c2ccccc12`, for which the GI50 is 20.7 µM (inactive) in the experiment with U-251; 21.9 µM with HCT-15; 20.3 µM (inactive) with HCT-116; 61.5 µM (inactive) in the experiment with HCC 2998; 57.9 µM (inactive) in the experiment with SK-OV-3; 21.4 µM (inactive) in the experiment with MOLT-4. Besides, the GI50 in the experiment with UACC-257 is 34.4 µM (inactive); with SNB-75, 20.1 µM (inactive); in the experiment on RXF 393 it was 20 µM (inactive); in the experiment on Hs-578T it was 20 µM (inactive); in the experiment with OVCAR-4 it was 18.3 µM (inactive); with SK-MEL-5 it was 24.2 µM (inactive). Moreover, the GI50 in the experiment on OVCAR-3 was 4.5 µM (inactive); in the experiment on IGROV-1 it was 21.7 µM (inactive); in the experiment on NCI-H23 it was 22 µM (inactive); in the experiment with NCI-H522 it was 25.8 µM (inactive); in the experiment on KM12, 26.7 µM (inactive); with PC-3, 16.6 µM (inactive).
On to `CC(C)C1OC(=O)/C=C/C=C/C=C/C=C/C=C/CC(O)CC(O)CC(O)CC(O)CC(O)CC(O)CC(O)CC(O)/C=C/C1C` (stereo not given), for which the GI50 is > 100 µM (inactive) in the experiment on U-251; greater than 100 µM in the experiment with HCT-15; > 100 µM (inactive) with HCT-116; > 100 µM (inactive) with BT-549; > 100 µM (inactive) in the experiment on HCC 2998; > 100 µM (inactive) in the experiment on MOLT-4. The GI50 with UACC-257 was > 100 µM (inactive); in the experiment with SNB-75, > 100 µM (inactive); in the experiment with RXF 393 it was 73.8 µM (inactive); in the experiment with OVCAR-4, > 100 µM (inactive); in the experiment with SK-MEL-5 it was > 100 µM (inactive); with OVCAR-3 it was > 100 µM (inactive). In addition, the GI50 in the experiment on IGROV-1, with HL-60, in the experiment on NCI-H23, in the experiment on KM12 and in the experiment on PC-3 was > 100 µM (inactive) in each case.
Consider `COCCN(C(=O)c1ccccc1)C1CCC2(SCCS2)c2[nH]c3ccccc3c21` (stereo not given), for which the GI50 was 46.9 µM (inactive) in the experiment with U-251; 28.8 µM in the experiment with HCT-15; 37.8 µM (inactive) in the experiment on HCT-116; 51.4 µM (inactive) with HCC 2998; 18.5 µM (inactive) in the experiment on MOLT-4; 59.2 µM (inactive) in the experiment on UACC-257. Besides, the GI50 with SNB-75 is 70.1 µM (inactive); in the experiment on RXF 393 it was 20.7 µM (inactive); in the experiment on Hs-578T, 29.4 µM (inactive); in the experiment on SK-MEL-5, 22.9 µM (inactive); in the experiment with OVCAR-3, 51.2 µM (inactive); in the experiment on IGROV-1 it was 34.5 µM (inactive). For the same compound, the GI50 is 14.9 µM (inactive) with HL-60; 51.5 µM (inactive) in the experiment with NCI-H23; 23.3 µM (inactive) with NCI-H522; 28.5 µM (inactive) with KM12; 20 µM (inactive) with PC-3.
Regarding `CCn1c(=O)c2nc(SC)sc2n(-c2ccccc2)c1=S`, the GI50 in the experiment with U-251 is > 100 µM (inactive); with HCT-15, 79.4 µM; in the experiment with HCT-116, 58.7 µM (inactive); with HCC 2998, > 100 µM (inactive); in the experiment on SK-OV-3 it was 94.6 µM (inactive); in the experiment on MOLT-4 it was 31.6 µM (inactive). In addition, the GI50 was > 100 µM (inactive) with UACC-257; 91.2 µM (inactive) in the experiment with SNB-75; 67.3 µM (inactive) in the experiment with RXF 393; 40.3 µM (inactive) in the experiment with Hs-578T; > 100 µM (inactive) in the experiment with OVCAR-4; 39.4 µM (inactive) in the experiment with SK-MEL-5. Besides, the GI50 in the experiment on OVCAR-3 was 68.5 µM (inactive); in the experiment with IGROV-1 it was > 100 µM (inactive); in the experiment with HL-60, 3.08 µM (inactive); in the experiment on NCI-H23 it was 46.8 µM (inactive); with NCI-H522, 79.3 µM (inactive); in the experiment with KM12, 49.9 µM (inactive). For the same compound, the GI50 in the experiment on PC-3 was 30.7 µM (inactive).
Regarding `C=Cc1ccccc1C1(O)C=CC(OC)(OC)C=C1`, the GI50 in the experiment with U-251 is 3.66 µM (inactive); in the experiment on HCT-15, 3.53 µM; with HCT-116 it was 3.4 µM (inactive); with HCC 2998, 18.5 µM (inactive); in the experiment on SK-OV-3, 13.9 µM (inactive); in the experiment on MOLT-4, 4 µM (inactive). Besides, the GI50 with UACC-257 is 11.8 µM (inactive); with SNB-75, 18.8 µM (inactive); in the experiment with RXF 393, 4.97 µM (inactive); in the experiment with Hs-578T, 21.4 µM (inactive); with OVCAR-4, 17.8 µM (inactive); with SK-MEL-5, 13.8 µM (inactive). Further, the GI50 in the experiment on OVCAR-3 was 3.05 µM (inactive); with IGROV-1, 13.4 µM (inactive); in the experiment on HL-60, 3.4 µM (inactive); in the experiment with NCI-H23 it was 4.46 µM (inactive); in the experiment on NCI-H522, 7.26 µM (inactive); in the experiment on KM12 it was 0.617 µM (active). Further, the GI50 with PC-3 was 10.1 µM (inactive).
As for `Cc1[nH]n(-c2nc3c(c(=O)[nH]2)CCCC3)c(=O)c1CCO`, the GI50 with U-251 was > 100 µM (inactive); with HCT-15, greater than 100 µM; in the experiment on HCT-116, > 100 µM (inactive); with HCC 2998 it was > 100 µM (inactive); with SK-OV-3, > 100 µM (inactive); with MOLT-4, > 100 µM (inactive). In addition, the GI50 with UACC-257, in the experiment with RXF 393, with Hs-578T, in the experiment with OVCAR-4, in the experiment on SK-MEL-5 and with OVCAR-3 was > 100 µM (inactive) in each case. For the same compound, the GI50 in the experiment on IGROV-1, with HL-60, with NCI-H23, in the experiment on NCI-H522, in the experiment with KM12 and in the experiment on PC-3 was > 100 µM (inactive) each time.
As for `C=CCNC(=S)NC=C(C(N)=O)C(N)=O`, the GI50 is > 100 µM (inactive) in the experiment with U-251; greater than 100 µM in the experiment with HCT-15; > 100 µM (inactive) in the experiment on HCT-116; > 100 µM (inactive) in the experiment on HCC 2998; > 100 µM (inactive) with SK-OV-3; > 100 µM (inactive) with MOLT-4. Also, the GI50 in the experiment on UACC-257, in the experiment with SNB-75, in the experiment on RXF 393, in the experiment on Hs-578T, in the experiment on OVCAR-4 and in the experiment with SK-MEL-5 was > 100 µM (inactive) throughout. For the same compound, the GI50 in the experiment with OVCAR-3 is 11.1 µM (inactive); with IGROV-1, > 100 µM (inactive); in the experiment on HL-60, > 100 µM (inactive); in the experiment on NCI-H23 it was > 100 µM (inactive); in the experiment on NCI-H522 it was > 100 µM (inactive); with KM12, > 100 µM (inactive). Further, the GI50 in the experiment on PC-3 was > 100 µM (inactive).
Take `CC(C)n1c(=O)c2nn3c(=O)n(C(C)C)c(=O)c3nn2c1=O`: the concentration for 50% growth inhibition (GI50) was greater than 100 µM with HCT-15; > 100 µM (inactive) in the experiment on HCT-116; > 100 µM (inactive) with HCC 2998; > 100 µM (inactive) with SK-OV-3; > 100 µM (inactive) in the experiment with MOLT-4; > 100 µM (inactive) with UACC-257. The GI50 in the experiment on RXF 393, in the experiment on Hs-578T, in the experiment on OVCAR-4, with SK-MEL-5, in the experiment with OVCAR-3 and in the experiment with IGROV-1 was > 100 µM (inactive) each time. The GI50 with HL-60, in the experiment on NCI-H23, in the experiment with KM12 and in the experiment on PC-3 was > 100 µM (inactive) throughout.
As for `CCCCC(=O)OC[n+]1ccc2c(C)c3[nH]c4ccccc4c3c(C)c2c1`, the concentration for 50% growth inhibition (GI50) in the experiment with U-251 was 0.574 µM (active); in the experiment with HCT-15 it was 0.222 µM; in the experiment on HCT-116, 0.221 µM (active); in the experiment on HCC 2998, 0.433 µM (active); in the experiment with SK-OV-3, 0.74 µM (active); in the experiment on MOLT-4, 0.0775 µM (active). Moreover, the GI50 is 1.43 µM (inactive) with UACC-257; 1.28 µM (inactive) in the experiment with SNB-75; 0.297 µM (active) in the experiment on RXF 393; 0.217 µM (active) in the experiment on Hs-578T; 1.01 µM (active) with OVCAR-4; 1.39 µM (inactive) in the experiment on SK-MEL-5. The GI50 with OVCAR-3 is 1.22 µM (inactive); with IGROV-1, 0.502 µM (active); in the experiment with HL-60, 0.378 µM (active); in the experiment with NCI-H23, 0.14 µM (active); in the experiment on NCI-H522, 0.773 µM (active); in the experiment with KM12, 0.446 µM (active). Also, the concentration for 50% growth inhibition (GI50) in the experiment with PC-3 is 0.298 µM (active).
Regarding `COc1cc(/C=C2\N=C(c3ccccc3)N(c3cc4cc(Sc5ccccc5)ccc4[nH]3)C2=O)ccc1O`, the GI50 was 2.86 µM in the experiment with HCT-15; 2.11 µM (inactive) in the experiment on HCT-116; 13.6 µM (inactive) in the experiment on BT-549; 5.82 µM (inactive) in the experiment with HCC 2998; 2.49 µM (inactive) in the experiment with MOLT-4; 14.8 µM (inactive) in the experiment on UACC-257. Further, the GI50 was 21.8 µM (inactive) in the experiment with SNB-75; 5.02 µM (inactive) in the experiment with RXF 393; 35 µM (inactive) with OVCAR-4; 2.54 µM (inactive) in the experiment with SK-MEL-5; 3.28 µM (inactive) with IGROV-1; 1.39 µM (inactive) with HL-60. Also, the GI50 in the experiment on NCI-H23 was 18.5 µM (inactive); in the experiment on NCI-H522 it was 1.86 µM (inactive); in the experiment on KM12 it was > 50 µM (inactive).
As for `COC(=O)C1CCC(=O)N1CN(C(C)=O)c1ccccc1Cl` (stereo not given), the GI50 with U-251 was > 100 µM (inactive); in the experiment with HCT-15 it was greater than 100 µM; in the experiment on HCT-116 it was > 100 µM (inactive); in the experiment with HCC 2998 it was > 100 µM (inactive); in the experiment on SK-OV-3, > 100 µM (inactive); with MOLT-4 it was > 100 µM (inactive). Besides, the GI50 in the experiment with UACC-257, in the experiment on SNB-75, in the experiment with RXF 393, with Hs-578T, in the experiment on OVCAR-4 and in the experiment with SK-MEL-5 was > 100 µM (inactive) throughout. The GI50 with OVCAR-3, with IGROV-1, in the experiment with NCI-H23, in the experiment with NCI-H522, with KM12 and in the experiment on PC-3 was > 100 µM (inactive) each time.
